This note sets out measurements from US7910723B2, “IG20 splice variants therapeutics for cancer” (The Board of Trustees of the University of Illinois, priority 2006, dated 2011).

Test [1] concerns the target Akt (Homo sapiens, UniProt P31749). The experiment in a line: Phosphorylation of MADD in vitro by Akt (kinase assay). Type of test: biochemical. The settings on record: GST-tagged recombinant MADD, rAkt, 1 h at 30° C. The procedure: (A) In vitro phosphorylation of rMADD by Akt. GST-wtMADD or -MADD mutants were expressed in bacteria, purified, and then incubated with rAkt and γ[^32P] ATP. After 1 h incubation at 30° C., the products were resolved on SDS-PAGE and ^32P-labeled proteins were visualized by autoradiography. (B) MADD is labeled by [^32P]orthophosphate in vivo. HEK293 cells were transfected with wtMADD or MADD mutant constructs. Twenty-four hours after transfection cells were incubated with 0.3 mCi/ml [32P]orthophosphate for 6 h. MADD was immunoprecipitated with an anti-YFP antibody. The precipitated MADD was separated by SDS-PAGE, transferred to a nitrocellulose membrane, and subjected to autoradiography. Loaded MADD was visualized by staining the same membrane with an anti-YFP antibody. (C) HEK293 cells were transfected with cDNAs for wtMADD or MADD mutants and. 36 h later the cells were harvested for immunoblotting using the anti-phospho-S-70, -T-173 or -T-1041 antibodies. An anti-YFP antibody was used to detect exogenous MADD. (D) HEK293 cells were transfected with wtMADD and 24 hours later cells were serum starved for 20 h. Subsequently, they were treated with LY (10 μM) for 1 h and/or IGF-1 (150 ng/ml) for 20 minutes. The cell lysates were immunoblotted and probed with anti phospho-specific antibodies or an anti-YFP antibody. (E) HEK293 cells were co-transfected with wtMADD along with dominant negative Akt (DN-Akt) or the empty vector pcDNA3.1 (pcDNA). Immunoblots were probed with the anti phospho-specific antibodies or an anti-YFP antibody. (F) HeLa cells were serum starved for 20 h, treated with LY (10 μM) for 1 h, IGF-1 (150 ng/ml) for 20 minutes. Immunoblot was probed with the anti phospho-specific antibodies or an anti-MADD antibody.
To test whether MADD is a substrate of Akt, an in vitro assay was employed to test whether Akt could directly phosphorylate MADD. […] It was tested whether MADD could be phosphorylated in vivo. […] Second, three antibodies that specifically reacted with phosphorylated S70 (anti-phospho S70), T173 (anti-phospho T173) or T1041 (anti-phospho T1041) were raised, respectively. The phosphopeptides, CRQRRMpSLRDDTS (SEQ ID NO: 7) (S-70), GSRSRNSpTLTSL (SEQ ID NO: 8) (T-173), and KRKRSPpTESVNTP (SEQ ID NO: 9) (T-1041) were used to immunize the rabbits. Antisera were depleted of antibodies that recognize non-phosphorylated MADD by negatively selecting the antibodies using an identical non-phosphorylated peptide affinity column. Antibodies in the flow through were tested to ensure that they specifically bind only to the corresponding phosphorylated peptide and not the non-phosphorylated couterpart. […]

In test [2] the test system is HEK293 cells. The experiment in a line: Cell death of HEK293 cells transfected with MADD constructs, Trypan Blue exclusion. Type of test: cell-based. The settings on record: HEK293, 48 h after transfection. Here is the method:
(A) HEK293 cells were transfected with various MADD constructs. Cell death was determined 48 h after transfection by Trypan Blue exclusion. *p<0.05 vs control. (B) Apoptosis analyzed by Cell Death Detection ELISA. *p<0.05 vs control. (C) Phosphorylatable but not the nonphosphorylatable MADD could rescue cell death upon endogenous MADD knockdown. HeLa cells were infected with the lentivirus harboring MADD shRNAi (RNAi) or its scrambled form (Scrambled RNAi). 24 h after infection, cells were transfected with the constructs of wtMADD-R or MADD3A-R. 48 h after transfection, cell death was determined by Trypan Blue exclusion. *p<0.05 vs RNAi alone. (D) Inhibition of Akt or PI3K could abolish the ability of wtMADD-R to rescue cell death upon endogenous MADD knockdown. HeLa cells were infected with the lentivirus harboring MADD shRNA (RNAi). 24 h after infection, cells were infected with the adenovirus harboring DN-Akt, and transfected with wtMADD-R. LY (10 μM) was added 6 h after transfection. 48 h after transfection, cell death was determined by Trypan Blue exclusion. Data are expressed as the mean±SEM of three independent experiments.
To see whether phosphorylation is required for the prosurvival function of MADD, WT and mutant MADD were tested. […] Since knockdown of endogenous MADD can cause cell death, it was tested whether the wtMADD or MADD3A could rescue this cell death. Only the shRNA resistant wtMADD (wtMADD-R) and not the MADD3A-R could rescue cell death upon endogenous MADD knockdown (FIG. 14C), which was abrogated in the presence either LY or DN-Akt (FIG. 14D). Taken together, the prosurvival function of MADD is dependent upon its phosphorylation by Akt.
Cell culture and viability assay. HEK293, HeLa and PA-1 cells were cultured. Cell death was determined by Trypan Blue exclusion and the numbers of Trypan Blue-positive and -negative cells were counted using a haemocytometer.

The subject of test [3] is DR4. The experiment in a line: Association of exogenous MADD with DR4 in HEK293 cells (immunoprecipitation). Type of test: cell-based. Here is the method:
(A) Phosphorylation status of MADD could influence its binding to DR4. HEK293 cells were transfected with wtMADD or MADD mutants. 36 h after transfection, the cells were harvested for immunoprecipitation using an anti-DR4 antibody followed by immunoblotting using an anti-YFP antibody to detect exogenous MADD. The membrane was reprobed with an anti-DR4 antibody to show the protein loading. (B) PI3K can influence the association of exogenous MADD with DR4. HEK293 cells were transfected with wtMADD. Twenty four hours after transfection, the cells were serum starved for 20 h. Further, they were treated with LY (10 μM) for 1 h, IGF-1 (150 ng/ml) for 20 minutes. Immunoprecipitation using an anti-DR4 antibody was followed by immunoblotting using anti-YFP or anti-DR4 antibody. (C) Akt can influence exogenous MADD association with DR4. HEK293 cells were co-transfected with wtMADD along with DN-Akt or the empty vector pcDNA3.1 (pcDNA). Thirty six hours after transfection, the cells were harvested for immunoprecipitation using anti-DR4 antibody followed by immunoblotting with an anti-YFP or an anti-DR4 antibody. (D) PI3K can influence the association of endogenous MADD with DR4. HeLa cells were serum starved for 20 h, then treated with LY (10 μM) for 1 h, IGF-1 (150 ng/ml) for 20 minutes. Immunoprecipitation using an anti-DR4 antibody was followed by immunoblotting with an anti-MADD or an anti-DR4 antibody. (E) Akt can influence the association of endogenous MADD with DR4. HeLa cells were transfected with DN-Akt or pcDNA. Thirty six hours after transfection, the cells were collected for immunoprecipitation using an anti-DR4 antibody followed by immunoblotting with an anti-MADD antibody.
MADD can bind to DR4 and thereby block the activation of the extrinsic apoptotic pathway. […] Stimulation of PI3K by IGF-1 increased, while inhibition by LY reduced, the association between wtMADD and DR4 (FIG. 15B). […] This interaction was reduced in the presence of LY (FIG. 15D) or DN-Akt (FIG. 15E).
Immunoprecipitation. Immunoprecipitations were performed using standard procedures. The samples were precleared with 10% (vol/vol) Protein-A agarose (Roche) for 1 h on a rocking platform. Specific antibodies were added and rocked for 1 h. Immunoprecipitates were captured by incubating with 10% (vol/vol) Protein-A agarose for an hour. The agarose beads were spun down and washed three times with NET/NP40 buffer (150 mM NaCl, 2 mM EDTA, 50 mM Tris-HCl pH 7.5, 0.1% NP-40). The antigens were released and denatured by adding SDS sample buffer. Immunoblots were prepared and analysed as described above.

Test [4] deals with ERK1/2. The experiment in a line: TNF-α induced ERK phosphorylation in HeLa cells (immunoblot). Type of test: cell-based. The note with it: TNF-α 50 ng/mL, untransduced. The procedure:
(A) Time-kinetics of TNF-α induced ERK activation. HeLa cells (3×10^6 per 100 mm dish) were serum starved for 6 h and were either left untreated or treated with TNF-α (50 ng/mL) for different time periods as indicated. Cell lysates were analyzed for phosphorylated ERK or total ERK by immunoblot. (B) Down-modulation of endogenous IG20-SVs in HeLa cells. One microgram of total RNA obtained from HeLa cells 48 h post-transduction was used for reverse-transcription-polymerase chain reaction. The products were separated on a 2% agarose gel. Amplification of all four IG20-SVs was done using F2-B2 primers. […] HeLa cells (3×10^6 per 100 mm dish) were either untransduced or transduced with different lentiviruses expressing SCR, Mid and 13L ShRNA for different time periods as indicated. At the end of each time period, the cells were serum starved for 6 h and were either left untreated or treated with TNF-α (50 ng/mL) for 15 min. Cell lysates were analyzed for phosphorylated ERK or total ERK by immunoblot. The data shown is representative of at least 3 independent experiments.
(A) HeLa cells (3×10^6 per 100 mm dish) were transduced with different lentiviruses expressing SCR, Mid and 16E ShRNA for 48 h. The cells were then serum starved for 6 h and were either left untreated or treated with TNF-α (50 ng/mL) for 15 min. Cell lysates were analyzed for phosphorylated ERK or total ERK by immunoblot. (B) PA-1 cells (5×10^6 per 100 mm dish) were transduced with different lentiviruses expressing SCR, Mid and 13L ShRNA for 48 h. The cells were then serum starved for 6 h and were either left unstimulated or stimulated with TNF-α (50 ng/mL) for 15 min. Cell lysates were analyzed for phosphorylated ERK or total ERK by immunoblot. […] Cell lysates were analyzed for phosphorylated ERK or total ERK by immunoblot. […]
To gain insight into the time kinetics of TNF-α induced ERK phosphorylation, HeLa cells were treated with TNF-α (50 ng/mL) for different time periods. […] Down-modulation of IG20 transcripts upon treatment with different ShRNA expressing lentiviruses was monitored by RT-PCR. […]
On the technique in general: In western blotting, separated proteins are transferred to a membrane and probed.

Sequence of Akt (P31749 whole entry): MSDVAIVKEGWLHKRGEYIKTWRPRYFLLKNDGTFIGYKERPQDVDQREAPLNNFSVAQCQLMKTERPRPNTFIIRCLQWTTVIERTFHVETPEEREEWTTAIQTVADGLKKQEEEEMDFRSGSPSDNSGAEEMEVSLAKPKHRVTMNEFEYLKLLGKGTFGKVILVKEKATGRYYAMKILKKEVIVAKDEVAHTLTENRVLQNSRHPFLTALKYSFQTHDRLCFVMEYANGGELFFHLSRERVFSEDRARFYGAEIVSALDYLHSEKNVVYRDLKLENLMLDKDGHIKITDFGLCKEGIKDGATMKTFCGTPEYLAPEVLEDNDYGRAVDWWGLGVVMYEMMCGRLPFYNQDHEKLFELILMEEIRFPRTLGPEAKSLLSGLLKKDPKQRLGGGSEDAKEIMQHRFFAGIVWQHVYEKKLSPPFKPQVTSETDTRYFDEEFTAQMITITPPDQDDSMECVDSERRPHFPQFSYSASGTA

As for MADD70A: MADD mutant S70A, the “In vitro phosphorylation by Akt” value in test [1] is given as “reduced or absent”. The “Cell death upon enforced expression” value in test [2] is on record as “minimal effects on cell death”.

Regarding wtMADD: recombinant wild-type MADD, in test [3], the “Association of exogenous MADD with DR4” value is recorded as “can associate with DR4”. Further, in test [1], the “In vitro phosphorylation by Akt” value is “phosphorylated by Akt”. In addition, in test [2], the “Cell death upon enforced expression” value was “could not induce cell death”.

Regarding MADD1041A: MADD mutant T1041A, the “In vitro phosphorylation by Akt” value in test [1] was “reduced or absent”. In addition, in test [2], the “Cell death upon enforced expression” value is recorded as “minimal effects on cell death”.

On to “MADD3A: MADD mutant, all three residues (S70, T173, T1041) converted to alanine”, for which the “Association of exogenous MADD with DR4” value in test [3] is recorded as “almost non-existant”. Also, the “Cell death upon enforced expression” value in test [2] is listed as “significant cell death”.

Turning to TNF-α [reference compound], in test [4], the “Time of maximum ERK phosphorylation” value is 15 min.

Consider MADD173A: MADD mutant T173A, for which the “In vitro phosphorylation by Akt” value in test [1] is reported as “reduced or absent”. Also, the “Cell death upon enforced expression” value in test [2] is on record as “minimal effects on cell death”.
